Results as given in patent publication US7666890B2, “Synthesis and herbicidal activity of 1- (2-substituted benzo[d]thiazol-5-yl)-1H-1,2,4-triazol-5(4H)-one derivatives” (Huazhong Normal University, priority 2007, dated 2010).

What was measured:
Setaria viridis = assay: Test of herbicidal activities (greenhouse pot method); format: in vivo; conditions: single dose 300 g ai./h, treated before/after germination, 15 days later, greenhouse pot; for inhibition at 300 g/ha: Setaria viridis, 360 h, read-out: Herbicidal activity Setaria viridis (inhibition level)
Procedure, shortened: (§1)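 Greenhouse pot test at a single dose of 300 g ai./h, applied by spray tower pre- or post-emergence, with grasses at the 2-leaf stage, in triplicate with a blank control. Plants were kept at 15–30 °C. Inhibition was graded after 15 days: A 90–100%, B 80–<90%, C 60–<80%, D 50–<60%, E <50%.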

Brassica juncea = assay: as above; format: in vivo; conditions: single dose 300 g ai./h, treated before/after germination, 15 days later, greenhouse pot; for inhibition at 300 g/ha: Brassica juncea, 360 h, read-out: Herbicidal activity Brassica juncea (inhibition level)
Procedure, shortened: as §1

Digiatria sanguinalis = assay: as above; format: in vivo; conditions: single dose 300 g ai./h, treated before/after germination, 15 days later, greenhouse pot; for inhibition at 300 g/ha: 360 h, read-out: Herbicidal activity Digiatria sanguinalis (inhibition level)
Procedure, shortened: as §1

Chenopodium album = assay: as above; format: in vivo; conditions: single dose 300 g ai./h, treated before/after germination, 15 days later, greenhouse pot; for inhibition at 300 g/ha: Chenopodium album, 360 h, read-out: Herbicidal activity Chenopodium album (inhibition level)
Procedure, shortened: as §1

Amaranthus retroflexus = assay: as above; format: in vivo; conditions: single dose 300 g ai./h, treated before/after germination, 15 days later, greenhouse pot; for inhibition at 300 g/ha: Amaranthus retroflexus, 360 h, read-out: Herbicidal activity Amaranthus retroflexus (inhibition level)
Procedure, shortened: as §1

Echinochloa crusgalli = assay: as above; format: in vivo; conditions: single dose 300 g ai./h, treated before/after germination, 15 days later, greenhouse pot; for inhibition at 300 g/ha: Echinochloa crus-galli, 360 h, read-out: Herbicidal activity Echinochloa crusgalli (inhibition level)
Procedure, shortened: as §1

| SMILES | inhibition at 300 g/ha (Setaria viridis) | inhibition at 300 g/ha (Brassica juncea) | inhibition at 300 g/ha (Digiatria sanguinalis) | inhibition at 300 g/ha (Chenopodium album) | inhibition at 300 g/ha (Amaranthus retroflexus) | inhibition at 300 g/ha (Echinochloa crusgalli) | melting point | Herbicidal activity Setaria viridis (inhibition level) (Setaria viridis) | Herbicidal activity Brassica juncea (inhibition level) (Brassica juncea) | Herbicidal activity Digiatria sanguinalis (inhibition level) (Digiatria sanguinalis) | Herbicidal activity Chenopodium album (inhibition level) (Chenopodium album) | Herbicidal activity Amaranthus retroflexus (inhibition level) (Amaranthus retroflexus) | Herbicidal activity Echinochloa crusgalli (inhibition level) (Echinochloa crusgalli) |
| --- | --- | --- | --- | --- | --- | --- | --- | --- | --- | --- | --- | --- | --- |
| Cc1nn(-c2cc3nc([S+](C)[O-])sc3cc2F)c(=O)n1C (centres unmarked) [Compound 102, 1-(6-fluoro-2-(methylsulfinyl)benzo[d]thiazol-5-yl)-3,4-dimethyl-1H-1,2,4-triazol-5(4H)-one] | 60 to 80% | 60 to 80% | 50 to 60% | 90 to 100% | 80 to 90% | < 50% | 199 to 201 °C |  |  |  |  |  |  |
| Cc1nn(-c2cc3nc(S(=O)(=O)Cc4ccccc4Cl)sc3cc2Cl)c(=O)n1C(F)F [Compound 39, 1-(2-(2-chlorobenzylsulfonyl)-6-chlorobenzo[d]thiazol-5-yl)-4-(difluoromethyl)-3-methyl-1H-1,2,4-triazol-5(4H)-one] | 60 to 80% | 80 to 90% | 60 to 80% | 60 to 80% | 80 to 90% | < 50% | 196 to 198 °C |  |  |  |  |  |  |
| CCOC(=O)CSc1nc2cc(-n3nc(C)n(C(F)F)c3=O)c(Cl)cc2s1 [Compound 98] | 90 to 100% | 90 to 100% | 90 to 100% | 80 to 90% | 90 to 100% | 90 to 100% |  |  |  |  |  |  |  |
| Cc1nn(-c2cc3nc(SCc4ccc(Cl)nc4)sc3cc2Cl)c(=O)n1C(F)F [Compound 1] |  |  |  |  |  |  |  | D (50 ≦ D < 60%) | B (80 ≦ B < 90%) | B (80 ≦ B < 90%) | C (60 ≦ C < 80%) | A (90 ≦ A ≦ 100%) | B (80 ≦ B < 90%) |
| CCOC(=O)C(C)S(=O)(=O)c1nc2cc(-n3nc(C)n(C(F)F)c3=O)c(Cl)cc2s1 (centres unmarked) [Compound 67] |  |  |  |  |  |  |  | B (80 ≦ B < 90%) | B (80 ≦ B < 90%) | A (90 ≦ A ≦ 100%) | B (80 ≦ B < 90%) | C (60 ≦ C < 80%) | C (60 ≦ C < 80%) |
| CSc1nc2cc(-n3nc(C)n(C(F)F)c3=O)c(Cl)cc2s1 [Compound 96] |  |  |  |  |  |  |  | C (60 ≦ C < 80%) | B (80 ≦ B < 90%) | B (80 ≦ B < 90%) | B (80 ≦ B < 90%) | B (80 ≦ B < 90%) | B (80 ≦ B < 90%) |
| CCCSc1nc2cc(-n3nc(C)n(C)c3=O)c(F)cc2s1 [Compound 33] |  |  |  |  |  |  |  | B (80 ≦ B < 90%) | A (90 ≦ A ≦ 100%) | A (90 ≦ A ≦ 100%) | B (80 ≦ B < 90%) | A (90 ≦ A ≦ 100%) | B (80 ≦ B < 90%) |
| CSc1nc2cc(-n3nc(C)n(C)c3=O)c(F)cc2s1 [Compound 31] |  |  |  |  |  |  |  | B (80 ≦ B < 90%) | B (80 ≦ B < 90%) | A (90 ≦ A ≦ 100%) | C (60 ≦ C < 80%) | A (90 ≦ A ≦ 100%) | B (80 ≦ B < 90%) |
| CCCCCC[S+]([O-])c1nc2cc(-n3nc(C)n(C(F)F)c3=O)c(Cl)cc2s1 (centres unmarked) [Compound 114] |  |  |  |  |  |  |  | B (80 ≦ B < 90%) | A (90 ≦ A ≦ 100%) | A (90 ≦ A ≦ 100%) | A (90 ≦ A ≦ 100%) | A (90 ≦ A ≦ 100%) | B (80 ≦ B < 90%) |
| Cc1nn(-c2cc3nc(S(C)(=O)=O)sc3cc2F)c(=O)n1C(F)F [Compound 62] |  |  |  |  |  |  |  | A (90 ≦ A ≦ 100%) | D (50 ≦ D < 60%) | B (80 ≦ B < 90%) | D (50 ≦ D < 60%) | C (60 ≦ C < 80%) | A (90 ≦ A ≦ 100%) |
| CCOC(=O)C(C)Sc1nc2cc(-n3nc(C)n(C(F)F)c3=O)c(Br)cc2s1 (centres unmarked) [Compound 87] |  |  |  |  |  |  |  | A (90 ≦ A ≦ 100%) | A (90 ≦ A ≦ 100%) | B (80 ≦ B < 90%) | B (80 ≦ B < 90%) | B (80 ≦ B < 90%) | B (80 ≦ B < 90%) |
| Cc1ccccc1C[S+]([O-])c1nc2cc(-n3nc(C)n(C(F)F)c3=O)c(F)cc2s1 (centres unmarked) [Compound 104] |  |  |  |  |  |  |  | C (60 ≦ C < 80%) | A (90 ≦ A ≦ 100%) | C (60 ≦ C < 80%) | A (90 ≦ A ≦ 100%) | A (90 ≦ A ≦ 100%) | C (60 ≦ C < 80%) |
| CCCCSc1nc2cc(-n3nc(C)n(C(F)F)c3=O)c(F)cc2s1 [Compound 91] |  |  |  |  |  |  |  | A (90 ≦ A ≦ 100%) | A (90 ≦ A ≦ 100%) | A (90 ≦ A ≦ 100%) | C (60 ≦ C < 80%) | A (90 ≦ A ≦ 100%) | A (90 ≦ A ≦ 100%) |
| CCCCS(=O)(=O)c1nc2cc(-n3nc(C)n(C(F)F)c3=O)c(Cl)cc2s1 [Compound 69] |  |  |  |  |  |  |  | B (80 ≦ B < 90%) | B (80 ≦ B < 90%) | B (80 ≦ B < 90%) | C (60 ≦ C < 80%) | A (90 ≦ A ≦ 100%) | A (90 ≦ A ≦ 100%) |
| CCOCCSc1nc2cc(-n3nc(C)n(C(F)F)c3=O)c(Cl)cc2s1 [Compound 78] |  |  |  |  |  |  |  | A (90 ≦ A ≦ 100%) | D (50 ≦ D < 60%) | A (90 ≦ A ≦ 100%) | B (80 ≦ B < 90%) | A (90 ≦ A ≦ 100%) | C (60 ≦ C < 80%) |
| CCOC(=O)CS(=O)(=O)c1nc2cc(-n3nc(C)n(C(F)F)c3=O)c(Br)cc2s1 [Compound 54] |  |  |  |  |  |  |  | D (50 ≦ D < 60%) | A (90 ≦ A ≦ 100%) | C (60 ≦ C < 80%) | C (60 ≦ C < 80%) | B (80 ≦ B < 90%) | B (80 ≦ B < 90%) |
| CCCCS(=O)(=O)c1nc2cc(-n3nc(C)n(C(F)F)c3=O)c(F)cc2s1 [Compound 63] |  |  |  |  |  |  |  | C (60 ≦ C < 80%) | B (80 ≦ B < 90%) | A (90 ≦ A ≦ 100%) | A (90 ≦ A ≦ 100%) | A (90 ≦ A ≦ 100%) | B (80 ≦ B < 90%) |
| CCOC(=O)C(C)[S+]([O-])c1nc2cc(-n3nc(C)n(C(F)F)c3=O)c(F)cc2s1 (centres unmarked) [Compound 118] |  |  |  |  |  |  |  | C (60 ≦ C < 80%) | D (50 ≦ D < 60%) | C (60 ≦ C < 80%) | B (80 ≦ B < 90%) | A (90 ≦ A ≦ 100%) | D (50 ≦ D < 60%) |
| CCCCSc1nc2cc(-n3nc(C(F)(F)F)n(C(F)F)c3=O)c(Cl)cc2s1 [Compound 126] |  |  |  |  |  |  |  | C (60 ≦ C < 80%) | A (90 ≦ A ≦ 100%) | A (90 ≦ A ≦ 100%) | B (80 ≦ B < 90%) | B (80 ≦ B < 90%) | B (80 ≦ B < 90%) |
| CCSc1nc2cc(-n3nc(C)n(C(F)F)c3=O)c(Cl)cc2s1 [Compound 86] |  |  |  |  |  |  |  | A (90 ≦ A ≦ 100%) | A (90 ≦ A ≦ 100%) | A (90 ≦ A ≦ 100%) | B (80 ≦ B < 90%) | A (90 ≦ A ≦ 100%) | A (90 ≦ A ≦ 100%) |
